Tests used:
human PiT-2 = target: T1, human PiT-2 (Homo sapiens, UniProt Q08357); assay: Inhibitory effect on 33PO4 uptake into human PiT-2-expressing CHO cells; assay type: cell-based; conditions: pH 6.5, read-out: IC50 against 33PO4 uptake into human PiT-2-expressing cells
T1 construct: expressed in transfected cells; host or cells: CHO cells
T1 sequence (Q08357 1-652): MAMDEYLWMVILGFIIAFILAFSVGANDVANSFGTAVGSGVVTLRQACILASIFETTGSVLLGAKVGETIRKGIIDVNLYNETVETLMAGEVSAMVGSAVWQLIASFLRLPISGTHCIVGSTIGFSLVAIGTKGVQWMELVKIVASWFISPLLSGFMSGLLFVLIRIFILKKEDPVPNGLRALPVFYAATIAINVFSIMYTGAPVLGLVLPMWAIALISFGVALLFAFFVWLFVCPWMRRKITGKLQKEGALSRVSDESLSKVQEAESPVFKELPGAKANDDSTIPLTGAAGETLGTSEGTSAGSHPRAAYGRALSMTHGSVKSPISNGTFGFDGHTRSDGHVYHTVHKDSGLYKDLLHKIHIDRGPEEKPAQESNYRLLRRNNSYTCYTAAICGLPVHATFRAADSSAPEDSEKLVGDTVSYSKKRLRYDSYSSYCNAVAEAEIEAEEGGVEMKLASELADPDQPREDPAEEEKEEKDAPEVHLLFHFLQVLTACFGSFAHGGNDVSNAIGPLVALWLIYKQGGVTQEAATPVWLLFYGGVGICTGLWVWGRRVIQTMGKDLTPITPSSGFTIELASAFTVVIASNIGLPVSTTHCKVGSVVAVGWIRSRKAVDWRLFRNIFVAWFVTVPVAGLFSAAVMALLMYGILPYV
How it was run: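 CHO cells transfected with human PiT-2 or empty vector, then exposed to ^33PO4 at room temperature after compound preincubation. Uptake counted by scintillation. Inhibition computed from PiT-2 minus vector-cell uptake, relative to the DMSO control.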

[1] = tested on: chronic kidney disease model rat; assay: Suppressive effect on rise in serum creatinine concentration of chronic kidney disease model rat; assay type: in vivo; conditions: dosage 0.3% in feed, 14 weeks
From the text: Test Example 7: Suppressive Effect on Rise in Serum Creatinine Concentration of Chronic Kidney Disease Model Rat
A group given feed non-supplemented with the test compound was used as a reference pathological group, and a group neither subjected to the kidney removal nor antibody administration and given feed non-supplemented with the test compound was used as a normal group. Fourteen weeks after the start of administration of the test compound, blood was collected from the abdominal aorta and serum was collected. As an indicator of renal damage, serum creatinine concentrations were measured by an enzyme assay (creatinase-sarcosine oxidase-POD method). The rate of suppression of a rise in serum creatinine concentration was determined according to the following expression: Rate (%) of suppression of a rise in serum creatinine concentration=(1−[(Serum creatinine concentration of the test compound-treated pathological group)−(Serum creatinine concentration of the normal group)]/[(Serum creatinine concentration of the reference pathological group)−(Serum creatinine concentration of the normal group)])×100

human NaPi-IIb = target: T2, human NaPi-IIb (Homo sapiens, UniProt O95436); assay: Inhibitory effect on 33PO4 uptake into human NaPi-IIb-expressing CHO cells; assay type: cell-based; conditions: read-out: IC50
T2 construct: expressed in transfected cells
T2 sequence (O95436 1-690): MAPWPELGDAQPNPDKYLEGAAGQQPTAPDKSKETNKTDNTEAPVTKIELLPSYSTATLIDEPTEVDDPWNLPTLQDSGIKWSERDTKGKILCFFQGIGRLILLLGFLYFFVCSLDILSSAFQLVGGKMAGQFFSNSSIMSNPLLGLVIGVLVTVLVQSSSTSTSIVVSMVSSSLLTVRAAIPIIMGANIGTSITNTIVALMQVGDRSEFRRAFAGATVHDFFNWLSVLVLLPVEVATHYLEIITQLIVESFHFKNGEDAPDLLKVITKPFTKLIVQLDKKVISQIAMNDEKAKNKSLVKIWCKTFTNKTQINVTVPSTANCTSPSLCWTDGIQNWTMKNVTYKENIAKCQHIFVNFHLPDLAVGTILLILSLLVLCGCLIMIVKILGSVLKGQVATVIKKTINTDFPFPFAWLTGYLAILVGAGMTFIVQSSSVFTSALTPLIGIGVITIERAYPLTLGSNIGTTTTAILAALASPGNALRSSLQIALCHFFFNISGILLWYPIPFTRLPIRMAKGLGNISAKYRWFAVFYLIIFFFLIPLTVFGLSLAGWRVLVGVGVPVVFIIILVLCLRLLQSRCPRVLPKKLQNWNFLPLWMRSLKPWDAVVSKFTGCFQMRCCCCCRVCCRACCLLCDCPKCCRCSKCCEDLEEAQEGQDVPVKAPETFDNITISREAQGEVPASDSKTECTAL
How it was run: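 Stable human NaPi-IIb CHO line (G418-selected), plated and cultured overnight; ³³PO4 added in buffer A and uptake run at room temperature. Cells washed with ice-cold buffer A, then uptake counted by liquid scintillation.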

[2] = tested on: chronic kidney disease model rat; assay: Suppressive effect on calcium deposition in blood vessel of chronic kidney disease model rat; assay type: in vivo; conditions: thoracic aorta, dosage 0.3% in feed, 14 weeks
Description: Test Example 9: Suppressive Effect on Calcium Deposition in Blood Vessel of Chronic Kidney Disease Model Rat
From the same animal as that in Test Example 7, the thoracic aorta was collected 14 weeks after the start of administration of the test compound, and the dry weight was measured. The measured dry thoracic aorta was subjected to ashing and dissolved in a certain amount of hydrochloric acid, and then the calcium concentration in the solution was measured using OCPC method to determine the amount of calcium per gram of the thoracic aorta dry weight (Katsumata K, Kusano K, Hirata M, Tsunemi K, Nagano N, Burke S K, Fukushima N. Sevelamer hydrochloride prevents ectopic calcification and renal osteodystrophy in chronic renal failure rats. Kidney Int. 2003 August; 64(2): 441-450.) The rate of suppression of calcium deposition in blood vessel was determined according to the following expression: Rate (%) of suppression of calcium deposition in blood vessel=(1−[(Amount of calcium per gram of dried blood vessel of the test compound-treated pathological group)−(Amount of calcium per gram of dried blood vessel of the normal group)]/[(Amount of calcium per gram of dried blood vessel of the reference pathological group)−(Amount of calcium per gram of dried blood vessel of the normal group)])×100

IC50 (human PiT-2): 2.6 µM | IC50 (human NaPi-IIb): 8.9 µM
Compound: COCCN(C)CCOc1ccc(CN2C(=O)C(C(=O)Nc3ccc(C(F)(F)F)cc3-c3cc(C(F)(F)F)ncn3)=C(O)C3(CCCC3)N2C)c(F)c1F [Example 14, 7-[[2,3-Difluoro-4-[2-[2-methoxyethyl(methyl)amino]ethoxy]phenyl]methyl]-10-hydroxy-6-methyl-8-oxo-N-[4-(trifluoromethyl)-2-[6-(trifluoromethyl)pyrimidin-4-yl]phenyl]-6,7-diazaspiro[4.5]dec-9-ene-9-carboxamide]
Rate of inhibition (%) (suppression of a rise in serum creatinine concentration) [1]: 24% | Rate of inhibition (%) (suppression of calcium deposition in blood vessel) [2]: 100% 100%
